Measurements reported in PubChem BioAssay AID651650 (Sanford-Burnham Center for Chemical Genomics, 2012).
Active and inactive are the calls of the source.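 How the source made its calls: active means mean IC50 below 20 µM in each of the two panels, so potent in both; inactive means the rest.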

Biological target: Neuropilin-1 (Homo sapiens) (UniProt O14786)
Assay: NRP-1 b1b2 CendR peptide binding inhibitors, dose response, biochemical, FP and AlphaScreen panel (AID 651650)
Settings: NRP-1 b1b2 / RPARPAR peptide binding, FP or AlphaScreen
[1] = AlphaScreen, run 1, individual panel run IC50
[2] = FP, run 1, individual panel run IC50
[3] = FP, run 2, individual panel run IC50

Chain of Neuropilin-1 (Homo sapiens) (O14786 whole entry, looked up): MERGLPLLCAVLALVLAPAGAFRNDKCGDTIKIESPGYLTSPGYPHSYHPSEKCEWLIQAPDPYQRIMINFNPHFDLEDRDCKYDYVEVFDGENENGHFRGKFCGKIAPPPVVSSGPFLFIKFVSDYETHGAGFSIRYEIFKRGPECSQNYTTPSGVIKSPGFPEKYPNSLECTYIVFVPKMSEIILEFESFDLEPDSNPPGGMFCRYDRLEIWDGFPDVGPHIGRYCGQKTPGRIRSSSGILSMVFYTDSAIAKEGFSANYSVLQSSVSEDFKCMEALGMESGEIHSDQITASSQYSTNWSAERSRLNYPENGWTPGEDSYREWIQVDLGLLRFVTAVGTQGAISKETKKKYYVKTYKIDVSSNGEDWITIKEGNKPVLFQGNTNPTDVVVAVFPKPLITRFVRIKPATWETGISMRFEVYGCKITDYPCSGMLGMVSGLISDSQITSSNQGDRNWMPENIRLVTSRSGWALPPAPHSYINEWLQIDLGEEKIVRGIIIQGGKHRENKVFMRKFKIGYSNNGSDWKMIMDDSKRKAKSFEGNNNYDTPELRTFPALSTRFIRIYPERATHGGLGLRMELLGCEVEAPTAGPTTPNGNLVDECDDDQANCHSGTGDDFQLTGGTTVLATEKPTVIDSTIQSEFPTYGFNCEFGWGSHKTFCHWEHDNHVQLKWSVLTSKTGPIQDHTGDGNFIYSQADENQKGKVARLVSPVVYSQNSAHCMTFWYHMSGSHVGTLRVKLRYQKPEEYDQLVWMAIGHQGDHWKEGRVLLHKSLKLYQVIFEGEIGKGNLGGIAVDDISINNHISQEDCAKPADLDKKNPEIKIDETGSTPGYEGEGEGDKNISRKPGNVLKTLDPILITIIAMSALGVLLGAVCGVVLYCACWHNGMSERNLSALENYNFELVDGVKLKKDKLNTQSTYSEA

| Structure (SMILES) | IC50 (AlphaScreen, mean of runs) | IC50 [1] | IC50 (FP, mean of runs) | IC50 [2] | IC50 [3] |
| --- | --- | --- | --- | --- | --- |
| CCN(CC)C(=O)C1CCCN(C(=O)Nc2ccc3nsnc3c2)C1 (stereo not given) | > 100 µM (inactive) | > 100 µM | > 95 µM (inactive) | > 95 µM | > 95 µM |
| O=C(NNC(=O)c1csc(N2CCOCC2)n1)c1ccc(=O)[nH]c1 | > 100 µM (inactive) | > 100 µM | > 95 µM (inactive) | > 95 µM | > 95 µM |
| Cc1cccc(C)c1Nc1nnc(SCC(=O)Nc2cc(S(=O)(=O)N3CCCCC3)ccc2Cl)s1 | > 100 µM (inactive) | > 100 µM | > 95 µM (inactive) | > 95 µM | > 95 µM |
| CC(=NN(Cc1ccccc1)c1ccccc1)c1ccccc1 | inactive | 41.3 µM | > 95 µM (inactive) | > 95 µM | > 95 µM |
| CCN(C[C@H]1N[C@@](CC)(C(=O)OC)[C@H]2C(=O)N(C)C(=O)[C@@H]12)S(=O)(=O)c1ccc(OC)cc1 | > 100 µM (inactive) | > 100 µM | > 95 µM (inactive) | > 95 µM | > 95 µM |
| CC(=O)Nc1ccccc1OCC(=O)N(Cc1ccccc1)C(C)C | > 100 µM (inactive) | > 100 µM | > 95 µM (inactive) | > 95 µM | > 95 µM |
| Cc1cc(C)n2c(Nc3ccc4c(c3)OCCO4)c(-c3ccccn3)nc2n1 | > 100 µM (inactive) | > 100 µM | > 95 µM (inactive) | > 95 µM | > 95 µM |
| CCCCn1nnnc1C(c1cc2ccccc2o1)N(C)Cc1ccc(Cl)c(Cl)c1 (stereo not given) | 12.7 µM | 12.7 µM | > 95 µM (inactive) | > 95 µM | > 95 µM |
| CC#CCN(Cc1ccco1)C(=O)C1CCC(=O)N(Cc2ccccc2F)C1 (stereo not given) | > 100 µM (inactive) | > 100 µM | > 95 µM (inactive) | > 95 µM | > 95 µM |
| CCOC(=O)/C=C/COc1ccccc1[N+](=O)[O-] | > 100 µM (inactive) | > 100 µM | > 95 µM (inactive) | > 95 µM | > 95 µM |
| O=S(=O)(c1ccccc1)c1nc(-c2ccc(F)cc2)oc1N1CCOCC1 | > 100 µM (inactive) | > 100 µM | > 95 µM (inactive) | > 95 µM | > 95 µM |
| COc1cc(C(=O)NCc2ccccc2)cc(Br)c1OC | > 100 µM (inactive) | > 100 µM | > 95 µM (inactive) | > 95 µM | > 95 µM |
| Cc1ccc(C(=O)C2CN3CCC2CC3)cc1 (stereo not given) | > 100 µM (inactive) | > 100 µM | > 95 µM (inactive) | > 95 µM | > 95 µM |
| Cc1nnc(NC(=O)c2ccccc2C(=O)O)s1 | 16.6 µM | 16.6 µM | > 95 µM (inactive) | > 95 µM | > 95 µM |
| CC(=O)Nc1ccc(NC(=O)C2CC(=O)N=C(N)S2)cc1 (stereo not given) | > 100 µM (inactive) | > 100 µM | > 95 µM (inactive) | > 95 µM | > 95 µM |
| O=C(c1ccc(-c2cccc(C(F)(F)F)c2)o1)N1CCCC(C(F)(F)F)C1 (stereo not given) | > 100 µM (inactive) | > 100 µM | > 95 µM (inactive) | > 95 µM | > 95 µM |
| O=c1c2cn[nH]c2nc(SCc2ccccc2F)n1-c1ccc(Br)cc1 | > 100 µM (inactive) | > 100 µM | > 95 µM (inactive) | > 95 µM | > 95 µM |
| COc1ccc(NC(=O)CN2CCN(c3c(C)cc(C)cc3C)CC2)cc1 | > 100 µM (inactive) | > 100 µM | > 95 µM (inactive) | > 95 µM | > 95 µM |
